Laboratory results: paper PMC8549013 (Neuropharmacology, 2021)

What was measured:
hDAT = details: same technique, ref Steele and Eltit, 2019; cited from earlier work
wt hDAT = wt hDAT (Homo sapiens, UniProt Q01959); assay: MAT-Ca2+ assay: inhibition of DA-induced Ca2+ signals; format: cell-based; details: DA 10 μM; for pIC50 ± SEM: ~35°C, Table 2
NET = details: rat brain synaptosomes; ref Gannon et al., 2018; cited from earlier work
[1] = molecular target: A117S/D121G/P323V/F318C dDAT (quadruple dDAT mutant) (Drosophila melanogaster, UniProt Q7K4Y6, A117S/D121G/F318C/P323V); assay: MAT-Ca2+ assay: inhibition of DA-induced Ca2+ signals; format: cell-based
wt dDAT = wt dDAT (Drosophila melanogaster, UniProt Q7K4Y6); assay: as above; format: cell-based; details: DA 10 μM; for pIC50 ± SEM: bottom of fit constrained to zero for MDPV
[2] = molecular target: A117S/D121G/P323V dDAT (triple dDAT mutant) (Drosophila melanogaster, UniProt Q7K4Y6, A117S/D121G/P323V); assay: as above; format: cell-based
F318C dDAT mutant = F318C dDAT mutant (Drosophila melanogaster, UniProt Q7K4Y6, F318C); assay: as above; format: cell-based
D121G dDAT mutant = D121G dDAT mutant (Drosophila melanogaster, UniProt Q7K4Y6, D121G); assay: as above; format: cell-based
[3] = tested on: human dopamine transporter (hDAT); details: ref Baumann et al., 2013; Cameron et al., 2013b; Steele and Eltit, 2019; cited from earlier work
A117S dDAT mutant = A117S dDAT mutant (Drosophila melanogaster, UniProt Q7K4Y6, A117S); assay: MAT-Ca2+ assay: inhibition of DA-induced Ca2+ signals; format: cell-based
A117S/D121G dDAT mutant = A117S/D121G dDAT mutant (Drosophila melanogaster, UniProt Q7K4Y6, A117S/D121G); assay: as above; format: cell-based
P323V dDAT mutant = P323V dDAT mutant (Drosophila melanogaster, UniProt Q7K4Y6, P323V); assay: as above; format: cell-based
[4] = Table 2 dataset, with DA pre-pulse
[5] = Table 1 dataset, without DA pre-pulse

Row | SMILES | IC50 (wt hDAT) | pIC50 ± SEM (wt hDAT) | weaker inhibiting uptake at NET than at DAT (NET) | IC50 [1, 4] | pIC50 ± SEM [1, 4] | IC50 (wt dDAT) | pIC50 ± SEM (wt dDAT) | IC50 [2, 4] | pIC50 ± SEM [2, 4] | IC50 ([2]; Table 2 dataset) | also measured
1 | NCCc1ccc(O)c(O)c1 [DA, dopamine] |  |  |  |  |  |  |  |  |  |  | pEC50 of DA to produce Ca2+ signals (hDAT): 5.89 ± 0.04
2 | CC(C(=O)c1ccc2c(c1)OCO2)N1CCCC1 (stereo not drawn) [MDPPP, 3,4-methylenedioxy-α-pyrrolidinopropiophenone] | 3420 nM | 5.47 ± 0.02 M | ~ 5 fold | 13000 nM | 4.89 ± 0.01 M | > 30000 nM | Inactive | 16000 nM | 4.80 ± 0.02 M |  | 
3 | CCCC(C(=O)c1ccc2c(c1)OCO2)N1CCCC1 (stereo not drawn) [MDPV, 3,4-Methylenedioxypyrovalerone] | 34 nM | 7.47 ± 0.01 M | ~ 4 fold | 251 nM | 6.60 ± 0.04 M | 27400 nM | 4.56 ± 0.02 M | 1210 nM | 5.92 ± 0.02 M | 1210 nM | IC50 (F318C dDAT mutant; F318C dDAT): 8240 nM; pIC50 ± SEM (F318C dDAT mutant; F318C dDAT): 5.08 ± 0.02 M; improvement in potency vs wt dDAT (F318C dDAT mutant; F318C dDAT vs wt dDAT): ~ 3 fold; IC50 (D121G dDAT mutant): 4650 nM; pIC50 ± SEM (D121G dDAT mutant): 5.33 ± 0.04 M; more potent than cocaine in blocking DA uptake through DAT [3]: ~ 50 fold; IC50 (A117S dDAT mutant; A117S dDAT): 8390 nM; pIC50 ± SEM (A117S dDAT mutant; A117S dDAT): 5.08 ± 0.04 M; improvement in potency vs wt dDAT (A117S dDAT mutant; A117S dDAT vs wt dDAT): ~ 3 fold; IC50 ([1]; Table 1 dataset): 250 nM; IC50 [1, 5]: 253 nM; pIC50 ± SEM [1, 5]: 6.60 ± 0.03 M; IC50 (A117S/D121G dDAT mutant): 2210 nM; pIC50 ± SEM (A117S/D121G dDAT mutant): 5.66 ± 0.04 M; IC50 (P323V dDAT mutant; P323V dDAT): 9690 nM; pIC50 ± SEM (P323V dDAT mutant; P323V dDAT): 5.01 ± 0.03 M; improvement in potency vs wt dDAT (P323V dDAT mutant; P323V dDAT vs wt dDAT): ~ 3 fold; IC50 ([2]; Table 1 dataset): 1180 nM; IC50 [2, 5]: 1180 nM; pIC50 ± SEM [2, 5]: 5.93 ± 0.02 M
4 | CCCC(C(=O)c1ccccc1)N1CCCC1 (stereo not drawn) [α-PVP, α-pyrrolidinovalerophenone] | 51 nM | 7.29 ± 0.01 M | equipotent | 1090 nM | 5.96 ± 0.03 M | 20700 nM | 4.68 ± 0.03 M | 1530 nM | 5.82 ± 0.03 M | 1530 nM | IC50 ([1]; Table 2 dataset): 1090 nM
